Test results as given in patent publication US9663486B2, “Selectively substituted quinoline compounds” (EISAI R&D MANAGEMENT CO., LTD., priority 2013, dated 2017).

Assays:
Human TLR9 = target: T1, Human TLR9 (Homo sapiens, UniProt Q9NR96); assay: HEK-293 NFkB-luciferase reporter assay, CpG-ODN stimulation; format: cell-based; parameters: stably and individually express human TLR4, TLR7 or TLR9 full-length ORF cDNAs; expressed in transfected cells; host or cells: HEK-293 (ATCC) with ELAM-1 NF-kappaB luciferase reporter; details: ligand CpG-ODN
T1 sequence (Q9NR96 26-1032): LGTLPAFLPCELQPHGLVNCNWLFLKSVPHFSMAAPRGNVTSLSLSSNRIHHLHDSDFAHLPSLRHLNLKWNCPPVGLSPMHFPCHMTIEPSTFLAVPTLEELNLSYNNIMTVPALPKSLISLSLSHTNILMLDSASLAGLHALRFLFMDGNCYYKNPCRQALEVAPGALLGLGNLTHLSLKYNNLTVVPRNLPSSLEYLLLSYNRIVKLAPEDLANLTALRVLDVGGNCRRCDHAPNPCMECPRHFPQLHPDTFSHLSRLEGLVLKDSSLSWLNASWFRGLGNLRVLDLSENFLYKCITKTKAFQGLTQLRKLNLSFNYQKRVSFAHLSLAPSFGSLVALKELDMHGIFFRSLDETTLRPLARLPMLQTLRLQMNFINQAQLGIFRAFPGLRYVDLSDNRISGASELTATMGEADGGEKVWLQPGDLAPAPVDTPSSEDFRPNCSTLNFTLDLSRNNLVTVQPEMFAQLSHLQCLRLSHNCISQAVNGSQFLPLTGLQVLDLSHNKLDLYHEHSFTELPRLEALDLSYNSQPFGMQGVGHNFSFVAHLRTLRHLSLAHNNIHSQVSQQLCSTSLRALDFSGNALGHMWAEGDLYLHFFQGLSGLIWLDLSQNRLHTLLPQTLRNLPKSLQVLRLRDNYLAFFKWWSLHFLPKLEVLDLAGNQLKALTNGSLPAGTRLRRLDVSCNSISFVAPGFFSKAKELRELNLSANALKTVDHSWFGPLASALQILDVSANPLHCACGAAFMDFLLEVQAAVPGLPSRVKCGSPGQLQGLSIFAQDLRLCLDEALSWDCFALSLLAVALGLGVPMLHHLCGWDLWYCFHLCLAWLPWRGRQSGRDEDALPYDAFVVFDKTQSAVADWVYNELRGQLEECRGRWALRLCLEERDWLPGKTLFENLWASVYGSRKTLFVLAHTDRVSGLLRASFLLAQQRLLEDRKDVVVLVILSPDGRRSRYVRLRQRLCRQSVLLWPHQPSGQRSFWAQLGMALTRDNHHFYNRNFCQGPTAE
Source text: (§1) HEK-293 cells (ATCC) were engineered to stably express a NF-kappaB transcription factor inducible E-selectin (ELAM-1) luciferase reporter derived from the plasmid pGL3 (Promega) containing base pairs −2241 bp to −254 bp from the promoter of the human E-selectin gene (Accession No. NM_000450). These cells were then subsequently engineered to stably and individually express human TLR4, TLR7 or TLR9 full-length ORF cDNAs. Human TLR4 cDNA (Accession No. NM_138554) was cloned into pcDNA 3.0 expression vector (Invitrogen). TLR4 transfected cells were also engineered to express human MD-2 co-receptor [MD-2 cDNA (Accession No. NM_015364) was cloned into the pEF-BOS vector] and were supplemented with 10 nM soluble CD14 (R&D Systems) in the media to optimize LPS responsiveness. Human TLR9 cDNA (Accession No. NM_017442) was cloned into the pBluescript II KS vector (Agilent). Human TLR7 cDNA (Accession No. NM_016562) was obtained from OriGene. HEK-293 cells stably expressing human TLR8 (Accession No. NM_138636) or mouse TLR7 (Accession No. NM_133211) were purchased from InvivoGen and were then stably transfected with pNiFty2(NF-kappaB)-luciferase reporter plasmid (InvivoGen). Each cell type was plated in Dulbecco's modified Eagle's medium (DMEM) containing 10% fetal bovine serum (FBS) at a density of 2.22×10^5 cells/ml into a 384-well plate and incubated for 2 days at 37° C., 5% CO2. […]

Human TLR4 = Human TLR4 (Homo sapiens, UniProt O00206); assay: HEK-293 NFkB-luciferase reporter assay, LPS stimulation; format: cell-based; parameters: stably and individually express human TLR4, TLR7 or TLR9 full-length ORF cDNAs; expressed in transfected cells; host or cells: HEK-293 (ATCC) with ELAM-1 NF-kappaB luciferase reporter; details: ligand LPS
Chain of Human TLR4 (O00206 24-839): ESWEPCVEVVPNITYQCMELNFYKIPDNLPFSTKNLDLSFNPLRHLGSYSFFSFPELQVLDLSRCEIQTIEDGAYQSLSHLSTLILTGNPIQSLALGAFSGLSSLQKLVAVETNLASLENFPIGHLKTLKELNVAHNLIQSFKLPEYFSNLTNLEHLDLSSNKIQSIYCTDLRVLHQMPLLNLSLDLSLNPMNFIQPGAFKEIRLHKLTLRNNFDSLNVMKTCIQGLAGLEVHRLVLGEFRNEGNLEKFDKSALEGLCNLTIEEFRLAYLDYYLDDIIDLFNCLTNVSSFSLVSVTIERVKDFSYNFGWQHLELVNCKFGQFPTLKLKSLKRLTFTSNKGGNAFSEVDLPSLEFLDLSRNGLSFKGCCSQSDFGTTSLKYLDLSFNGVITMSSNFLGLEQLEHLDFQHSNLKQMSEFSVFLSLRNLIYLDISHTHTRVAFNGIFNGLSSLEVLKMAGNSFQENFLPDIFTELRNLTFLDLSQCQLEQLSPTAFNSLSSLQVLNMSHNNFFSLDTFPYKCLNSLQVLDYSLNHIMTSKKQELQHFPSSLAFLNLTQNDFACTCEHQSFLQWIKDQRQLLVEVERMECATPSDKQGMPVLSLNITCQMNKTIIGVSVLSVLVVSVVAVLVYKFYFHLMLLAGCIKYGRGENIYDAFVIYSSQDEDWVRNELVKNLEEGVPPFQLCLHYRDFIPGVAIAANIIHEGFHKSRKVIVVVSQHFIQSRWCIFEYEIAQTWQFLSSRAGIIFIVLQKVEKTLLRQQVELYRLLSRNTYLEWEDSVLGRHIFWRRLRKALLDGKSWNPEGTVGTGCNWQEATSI
Chain of Human TLR4 (Q9Y6Y9 19-160 partner): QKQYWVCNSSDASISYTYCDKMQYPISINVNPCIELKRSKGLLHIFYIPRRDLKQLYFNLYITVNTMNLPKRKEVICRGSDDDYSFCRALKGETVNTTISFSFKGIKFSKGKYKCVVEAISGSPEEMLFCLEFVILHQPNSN
Source text: as §1

With C[C@H]1C[C@@H](N)CN(c2ccc(C#N)c3ncccc23)C1 [ER-888840, 5-((3R,5S)-3-amino-5-methylpiperidin-1-yl)quinoline-8-carbonitrile] the IC50 (Human TLR9) was 8.77 µM and the IC50 (Human TLR4) was greater than 10 µM.
